Reference: US5716949A, “Heterocyclic compounds” (Novo Nordisk A/S, priority 1995, dated 1998)
Structures can show the parent of a compound that is named as a salt.

Assay: Inhibition of formalin induced pain response in mice
Type: in vivo, mouse (NMRI female mice)
Settings: 0.1 mg/kg, 1% formalin into left hind paw
Experimental: Compounds of formula I may be used to treat all painful, hyperalgesic and/or inflammatory conditions in which C-fibers play a pathophysiological role by eliciting neurogenic pain or inflammation, i.e.: Formalin induced pain or paw oedema […] About 20 g NMRI female mice were injected […] 1% formalin into the left hind paw. The animals were then placed on a heated (31° C.) table, and the pain response was scored. After 1 h they were killed and bled. Left and right hind paws were removed and the weight difference between the paws was used as indication of the oedema response of the formalin injected paw. Values for inhibition of formalin induced pain response for some representative compounds are recorded in table 1.

## Cl.O=C1Cc2ccccc2N(CCCN2CCC[C@@H](C(=O)O)C2)c2ccccc21 [Example 1, (R)-1-(3-(10-Oxo-10,11-dihydro-5H-dibenz[b,f]azepin-5-yl)-1-propyl)-3-piperidinecarboxylic acid hydrochloride]
  % Pain inhibition (inhibition of formalin induced pain response): 21%

## O=C(O)[C@@H]1CCCN(CCC=C2c3ccccc3CSc3ccccc32)C1 [Example 3, (R)-1-(3-(6,11-Dihydro-dibenz[b,e]thiepin-11-yl)-1-propylidene)-3-piperidinecarboxylic acid hydrochloride]
  % Pain inhibition (inhibition of formalin induced pain response): 31%
